Patent publication US7977512B2, “Amine derivative, and production method and use thereof” (Kureha Corporation, priority 2005, dated 2011)
Counter-ions that a name gives are not always drawn.

How the values were obtained:
[1] = system: Pseudoperonospora cubensis; test: Protection test of Pseudoperonospora cubensis on cucumber cotyledons; format: in vivo; conditions: 144 h, spraying concentration 1000 ppm, water dispersible powder sprayed onto cucumber cotyledons (var. Sagami-Hanjiro) one day before inoculation, incidence scored six days after inoculation, read-out: Protective value
Protocol: Water dispersible powders were prepared in the same manner as in Formulation Example 2 using the compound (2a), (2aa), (2b), (2ba), (15), (16), (17), (18), (19), or (20). The each water dispersible powder was diluted with water to a predetermined concentration (1000 mg/l) and suspended. The diluted suspension was sprayed onto cucumber cotyledons (var. Sagami-Hanjiro) grown in a rectangular plastic pot (6.4 cm×6.4 cm) at 100 1/10 a. After air-drying the sprayed leaves one day, a Pseudoperonospora cubensis spore suspension was sprayed onto the leaves to inoculate, and the leaves were maintained at 25° C. under high humidity conditions. After six days from the inoculation, the incidence of Pseudoperonospora cubensis was investigated according to the following criteria. The protective value is calculated according to the following equation 1.
Protective value(%)=(1−average incidence in sprayed area/average incidence in non-sprayed area)×100 [Equation 1]

Structure (SMILES) | pest or weed control at 1000 ppm [1] [%] | melting point [°C]
CCCN(CCC)CCCCN(Cc1ccc(C#N)cc1)Cc1ccc[nH]1 [(18), 4-{[(4-dipropylaminobutyl)-(1H-pyrrol-2-ylmethyl)amino]methyl}benzonitrile] | 100 | 
CCCN(CCC)CCCCN(CCOC(C)=O)Cc1ccc(CN)cc1.Cl |  | 105 to 106
CCCN(CCC)CCCCNCc1ccc(C#N)cc1 (as salt: hydrochloride) [(2aa), 4-[(4-dipropylaminobutyl)amino]methylbenzonitrile hydrochloride] |  | 198 to 200
CCCN(CCC)CCCCNCc1ccc(CN)cc1.Cl |  | 205 to 210
CCCN(CCC)CCCCN(CC(=O)OCc1ccccc1)Cc1ccc(C#N)cc1 [(20), [(4-cyanobenzyl)-(4-dipropylaminobutyl)amino]benzyl acetate] | 100 | 
CCCN(CCC)CCCCN(Cc1ccc(C#N)cc1)Cc1ccc(N(CC)CC)cc1 [(16), 4-{[(4-diethylaminobenzyl)-(4-dipropylaminobutyl)amino]methyl}benzonitrile] | 100 | 
CCCN(CCC)CCCCN(Cc1ccc(C#N)cc1)Cc1ccc(C)o1 [(17), 4-{[(4-dipropylaminobutyl)-(5-methylfuran-2-ylmethyl)amino]methyl}benzonitrile] | 100 | 
CCCN(CCC)CCCCN(C)Cc1ccc(C#N)cc1 [(2b), 4-[(4-dipropylaminobutyl)methylamino]methylbenzonitrile] | 100 | 
CCCN(CCC)CCCCN(Cc1ccc(C#N)cc1)Cc1ccc(OC)cc1 [(19), 4-{[(4-dipropylaminobutyl)-(4-methoxybenzyl)amino]-methyl}-benzonitrile] | 90 | 
CCCN(CCC)CCCCN(Cc1ccc(Br)cc1)Cc1ccc(C#N)cc1 [(15), 4-{[(4-bromobenzyl)-(4-dipropylaminobutyl)amino]methyl}benzonitrile] | 100 | 
CCCN(CCC)CCCCNCc1ccc(C#N)cc1 [(2a), 4-[(4-dipropylaminobutyl)amino]methylbenzonitrile] | 100 | 
